Measured values published in patent US10278957B2, “Opioid agonist peptides and uses thereof” (Protagonist Therapeutics, Inc., priority 2017, dated 2019).
Square brackets hold non-standard residues; d marks the D form. Peptide text beside a SMILES is read from it. Dmt = Cc1cc(O)cc(C)c1C[C@H](N)C(=O)O; β3hF = N[C@H](CC(=O)O)Cc1ccccc1; Sar = CNCC(=O)O

Key:
μ-opioid receptor (MOR) = molecular target: T1, μ-opioid receptor (MOR) (Homo sapiens, UniProt P35372); experiment: MOR agonist cAMP assay (HitHunter cAMP, forskolin-stimulated); format: cell-based
T1 construct: host or cells: cAMP Hunter CHO-K1 OPRM1 Gαi cell line
T1 sequence (P35372 whole entry): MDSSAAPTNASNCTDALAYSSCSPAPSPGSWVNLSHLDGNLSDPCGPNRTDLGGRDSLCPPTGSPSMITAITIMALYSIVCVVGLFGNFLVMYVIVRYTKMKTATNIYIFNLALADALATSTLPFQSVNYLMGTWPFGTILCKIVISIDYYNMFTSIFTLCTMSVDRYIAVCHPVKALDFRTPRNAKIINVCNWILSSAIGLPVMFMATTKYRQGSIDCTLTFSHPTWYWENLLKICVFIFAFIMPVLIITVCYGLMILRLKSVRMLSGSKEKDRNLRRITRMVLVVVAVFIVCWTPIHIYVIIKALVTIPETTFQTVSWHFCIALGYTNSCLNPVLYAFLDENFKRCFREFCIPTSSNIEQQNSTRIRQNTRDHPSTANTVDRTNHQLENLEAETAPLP
In short: (§1)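 CHO-K1 Gαi cells expressing OPRM1 or OPRD1 were exposed 30 min at 37° C to 11-point threefold agonist dilutions, in duplicate, with 20 uM forskolin final. cAMP quantified by EFC chemiluminescent competitive immunoassay against cAMP standards. EC50 by four-parameter Hill nonlinear regression.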

[1] = SIF assay (stability in simulated intestinal fluid); format: in vitro ADME; conditions: for SIF (min): Table 4, SIF half-life; for half-life at 20 μM: simulated intestinal fluid (SIF) with pancreatin, simulated intestinal fluid, pH 6.8, pancreatin, 37° C.
Description: SIF was prepared by adding 6.8 g of monobasic potassium phosphate and 10.0 g of pancreatin to 1.0 L of water. After dissolution, the pH was adjusted to 6.8 using NaOH. DMSO stocks (2 mM) were prepared for each of the opioid agonist peptides. Aliquots of the DMSO solutions were dosed into […], each containing 0.5 mL of SIF, which was pre-warmed to 37° C. The final opioid agonist peptide concentration was 20 μM. The vials were kept in a benchtop Thermomixer® for the duration of the experiment. At each timepoint (0, 5, 10, 20, 40, 60, or 360 minutes or 24 hours), 1.0 mL of acetonitrile containing 1% formic acid was added to one vial to terminate the reaction. Samples were stored at 4° C. until the end of the experiment. After the final timepoint was sampled, the tubes were mixed and then centrifuged at 3,000 rpm for 10 minutes. Aliquots of the supernatant were removed, diluted 1:1 into distilled water containing an internal standard, and analyzed by LCMS/MS. The percent of the opioid agonist peptide remaining at each timepoint was calculated based on the peak area response ratio of opioid agonist peptide to the internal standard. Time 0 was set to 100%, and all later timepoints were calculated relative to time 0. Half-lives were calculated by fitting to a first-order exponential decay equation using Graph pad.

[2] = tested on: gastro intestinal motility; experiment: Gastro Intestinal Motility Charcoal Transit Assay; format: in vivo; conditions: for % inhibition of GI motility: Table 4, orally dosed, charcoal transit
Description: Animals were treated with 0.2 mL croton oil 96 and 72 hours before the gastro intestinal transit (GIT) assay. Animals were fasted overnight prior to charcoal meal dosing. Test and control articles were administered (PO, IP) followed by an oral dose of aqueous suspension of 5% charcoal in 10% gum arabic. […] Charcoal meal test were given 30 min post-test article dose. Twenty minutes after administration of the charcoal test meal, animals were euthanized via CO2 inhalation followed by cervical dislocation, and the small and large intestines were examined to evaluate GI transit and motility. GI transit is expressed as a percentage of the distance traveled by the charcoal test meal divided by the length of the intestine.

δ-opioid receptor (DOR) = molecular target: T2, δ-opioid receptor (DOR) (Homo sapiens, UniProt P41143); experiment: DOR agonist cAMP assay (HitHunter cAMP, forskolin-stimulated); format: cell-based
T2 construct: host or cells: cAMP Hunter CHO-K1 OPRD1 Gαi cell line
T2 sequence (P41143 whole entry): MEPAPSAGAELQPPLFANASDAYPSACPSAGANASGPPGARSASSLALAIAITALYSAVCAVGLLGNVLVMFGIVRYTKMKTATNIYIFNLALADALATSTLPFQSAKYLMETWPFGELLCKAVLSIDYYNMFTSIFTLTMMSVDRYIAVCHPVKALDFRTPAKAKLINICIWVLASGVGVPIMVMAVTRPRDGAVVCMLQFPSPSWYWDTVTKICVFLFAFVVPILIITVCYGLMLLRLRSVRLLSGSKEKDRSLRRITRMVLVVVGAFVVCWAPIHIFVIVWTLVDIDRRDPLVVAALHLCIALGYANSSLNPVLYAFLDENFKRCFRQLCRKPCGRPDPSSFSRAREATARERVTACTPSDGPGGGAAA
In short: as §1

[3] = SGF assay (stability in simulated gastric fluid); format: in vitro ADME; conditions: pig, simulated gastric fluid (SGF) with porcine pepsin, pH 2, pepsin, 37° C.
Description: SGF was prepared by adding 20 mg NaCl, 32 mg porcine pepsin (MP Biochemicals, catalog 02102599), and 70 μl HCl to 10 ml water (final pH=2). Aliquots of SGF (0.5 ml each) were pre-warmed at 37° C. To start the reaction, 1 μl of opioid agonist peptide stock solution (10 mM in DMSO) was added to 0.5 ml SGF and thoroughly mixed such that the final peptide concentration was 20 μM. The reactions were incubated at 37° C. with gentle shaking.
At each timepoint (0, 15, 30, 60 min) 50 µl aliquots were removed and added to 200 ul of acetonitrile containing 0.1% formic acid to quench the reaction. Samples were stored at 4° C. until the end of the experiment and centrifuged at 10,000 rpm for 5 minutes. Aliquots of the supernatant were removed, diluted 1:1 into distilled water containing internal standard, and analyzed by LCMS/MS. The percent of the opioid agonist peptide remaining at each timepoint was calculated based on the peak area response ratio of the opioid agonist peptide to the internal standard. Time 0 was set to 100%, and all later timepoints were calculated relative to time 0. Half-lives were calculated by fitting to a first-order exponential decay equation using GraphPad.

visceral pain (writhing) = experiment: Acetic Acid or Acetylcholine Writhing Assay; format: in vivo; conditions: PO; for effect on pain (writhing study): FIGS. 3A and 3B
Description: Animals were fasted overnight prior to the start of the assay. Test and control article doses, ranging from 3-50 mg/kg, were administered (PO) followed by an IP injection of acetic acid (1.0%) or acetylcholine (10 mg/kg), and immediately placed in a viewing chamber. […] Writhing (abdominal constriction) was defined as a contraction of the abdominal musculature accompanied by arching of the back and extension of the limbs. Latency to first writhe and total number of writhes were recorded. Test articles included oral eluxadoline and two illustrative opioid peptides disclosed herein, Peptide A and Peptide D; and control articles included loperamide and morphine

[4] = Plasma assay (stability in mouse plasma); format: in vitro ADME; conditions: 37° C.
Description: Peptides of interest (20 uM) were incubated with pre-warmed mouse plasma (BioreclamationIVT) at 37° C. Aliquots were taken at various time points up to 24 hours (e.g. 0, 0.25, 1, 3, 6 and 24 hr), and immediately quenched with 4 volumes of organic solvent (acetonitrile/methanol (1:1) and 0.1% formic acid, containing 1 μM internal standard). Quenched samples were stored at 4° C. until the end of the experiment and centrifuged at 17,000 g for 15 minutes. The supernatant was diluted 1:1 with deionized water and analyzed using LC-MS. Percentage remaining at each time point was calculated based on the peak area ratio (analyte over internal standard) relative to the initial level at time zero. Half-lives were calculated by fitting to a first-order exponential decay equation using Graph Pad Prism.

| Compound | EC50 (μ-opioid receptor (MOR)) | EC50 (δ-opioid receptor (DOR)) | half-life at 20 μM [3] | half-life at 20 μM [1] | other results |
| --- | --- | --- | --- | --- | --- |
| Cc1cc(O)cc(C)c1C[C@H](N)C(=O)N[C@H](C)C(=O)N[C@@H](C)C(=O)N[C@H](CC(=O)N(C)CC(N)=O)Cc1ccccc1 [Seq. ID 66, DMT-(D)Ala-Ala-(b-homoPhe)-Sar-NH2] (H-[Dmt][dA]A[β3hF][Sar]-NH2) |  |  |  |  | Ratio (MOR EC50/DOR EC50) (μ-opioid receptor (MOR); Table 4, MOR EC50 divided by DOR EC50): * (for ratio, * indicates between 0.1 and 0.3); SIF (min) [1]: **** (for SIF half-life values, **** indicates >1290); % inhibition of GI motility [2]: * (for % inhibition of GI motility, * indicates between 30% and 50%) |
| Cc1cc(O)cc(C)c1C[C@H](N)C(=O)N[C@H](C)C(=O)NCC(=O)N[C@H](CC(=O)N(C)[C@@H](C)C(=O)O)Cc1ccccc1 [compound 111] | < 1 nM | < 1 nM | > 24 h | > 24 h |  |
| Cc1cc(C(N)=O)cc(C)c1C[C@H](N)C(=O)N[C@H](C)C(=O)NCC(=O)N[C@H](CC(=O)N(C)[C@H](C(=O)O)C(C)C)Cc1ccccc1 [compound 96] | < 1 nM | < 1 nM | > 24 h | > 24 h |  |
| COc1ccc(CN(C(=O)[C@@H](N)Cc2c(C)cc(C(N)=O)cc2C)[C@@H](C)c2ncc(-c3ccccc3)[nH]2)cc1C(=O)O [eluxadoline, reference compound] |  |  |  |  | effect on pain (writhing study) (visceral pain (writhing)): little effect on pain |
| Cc1cc(C(N)=O)cc(C)c1C[C@H](N)C(=O)N[C@H](Cc1ccc(O)cc1)C(=O)NCC(=O)N[C@H](CC(=O)N(C)CC(N)=O)Cc1ccccc1 [compound 85] | < 1 nM | < 1 nM | 6 to 24 h | > 24 h |  |
| CCCC[C@H](NC(=O)[C@H](Cc1ccccc1)NC(=O)CNC(=O)[C@@H](C)NC(=O)[C@@H](N)Cc1c(C)cc(O)cc1C)C(N)=O [compound 37] |  |  | 0.167 to 6 h | ≤ 0.167 h | half-life at 20 uM [4]: 6 to 24 h |
| CCCC[C@@H](C(=O)O)N(C)C(=O)C[C@H](Cc1ccc(C)cc1)NC(=O)CNC(=O)[C@@H](C)NC(=O)[C@@H](N)Cc1c(C)cc(C(N)=O)cc1C [compound 165] | < 1 nM | < 1 nM | > 24 h | 0.167 to 6 h |  |
| Cc1cc(O)cc(C)c1C[C@H](N)C(=O)N[C@H](Cc1ccc(O)cc1)C(=O)NCC(=O)N[C@H](CC(=O)N(C)CC(N)=O)Cc1ccccc1 [compound 84] | < 1 nM | < 1 nM | > 24 h | > 24 h |  |
| Cc1cc(C(N)=O)cc(C)c1C[C@H](N)C(=O)N[C@H](C)C(=O)NCC(=O)N[C@H](CC(=O)N(C)[C@@H](C)C(=O)O)Cc1ccccc1 [compound 93] | < 1 nM | < 1 nM | > 24 h | > 24 h |  |
| CCCC[C@@H](C(=O)O)N(C)C(=O)C[C@H](Cc1cccc(Cl)c1)NC(=O)CNC(=O)[C@@H](C)NC(=O)[C@@H](N)Cc1c(C)cc(C(N)=O)cc1C [compound 167] | < 1 nM | < 1 nM | > 24 h | > 24 h |  |
| Cc1cc(C(N)=O)cc(C)c1C[C@H](N)C(=O)N[C@H](C)C(=O)NCC(=O)N[C@H](CC(=O)N(C)[C@@H](Cc1ccc(O)cc1)C(=O)O)Cc1ccccc1 [compound 102] | < 1 nM | < 1 nM | > 24 h | > 24 h |  |
| Cc1cc(O)cc(C)c1C[C@H](N)C(=O)NCC(=O)NCC(=O)N[C@H](CC(=O)N(C)CC(N)=O)Cc1ccccc1 [compound 81] (H-[Dmt]GG[β3hF][Sar]-NH2) | < 1 nM | < 1 nM | > 24 h | > 24 h |  |
| Cc1cc(C(N)=O)cc(C)c1C[C@H](N)C(=O)N[C@H](C)C(=O)NCC(=O)N[C@H](CC(=O)N(C)[C@@H](CC(C)C)C(=O)O)Cc1ccccc1 [compound 92] | 1 to 10 nM | < 1 nM | > 24 h | > 24 h |  |
| Cc1cc(O)cc(C)c1C[C@H](N)C(=O)N[C@H](C)C(=O)NCC(=O)N[C@H](CC(=O)N(C)CC(N)=O)Cc1ccccc1 [Seq. ID 43, H-DMT-a-G-bhF-Sar-NH2] |  |  |  |  | SIF (min) [1]: **** (for SIF half-life values, **** indicates >1290); % inhibition of GI motility [2]: ** (** indicates between 50% and 100%); inhibition of small intestine motility as compared to eluxadoline ([2]; orally administered, all doses tested, FIG. 1A): slightly greater inhibition of small intestine motility; inhibition of GI transit as compared to eluxadoline ([2]; orally administered, all doses tested, FIGS. 1B and 1C): greater inhibition of GI transit; effect on pain (writhing study) (visceral pain (writhing)): positive effect; visceral pain (writhing study) (visceral pain (writhing); at 30 mg/kg and 10 mg/kg, FIGS. 2A and 2B): significantly reduced visceral pain |
| Cc1cc(O)cc(C)c1C[C@H](N)C(=O)N[C@H](C)C(=O)NCC(=O)N[C@H](CC(=O)N(C)[C@H](C(=O)O)C(C)C)Cc1ccccc1 [compound 161] | < 1 nM | < 1 nM | > 24 h | > 24 h |  |
| Cc1cc(O)cc(C)c1C[C@H](N)C(=O)N[C@H](C)C(=O)NC(C)(C)C(=O)N[C@H](CC(=O)N(C)CC(N)=O)Cc1ccccc1 [compound 72] | < 1 nM | < 1 nM | 0.167 to 6 h | > 24 h |  |
| Cc1cc(O)cc(C)c1C[C@H](N)C(=O)N[C@H](CC(=O)O)C(=O)NCC(=O)N[C@H](CC(=O)NCC(N)=O)Cc1ccccc1 [compound 179] (H-[Dmt][dD]G[β3hF]G-NH2) | < 1 nM | < 1 nM | > 24 h | > 24 h |  |
